Assay results: patent US20200276136A1, “METHOD OF TREATING SELECTED PATIENT POPULATION EXPERIENCING DRAVET SYNDROME” (ZOGENIX INTERNATIONAL LIMITED, priority 2017, published 2020)

Key:
[1] = test system: patients with Dravet syndrome; conditions: cited from earlier work
[2] = test system: patients with Dravet syndrome; assay: Study 1 (ZX008-1501/1502), Phase 3 double-blind placebo-controlled: efficacy on seizures; assay type: in vivo, human; conditions: 0.8 mg/kg/day; end of the T+M Period
Description: The first 119 subjects to be randomized in both identical studies combined were analyzed and reported as Study 1 (FIG. 1), covered by a Statistical Analysis Plan (SAP).
Primary and key secondary endpoints in the Study 1 SAP were pre-determined. All patients were treated twice per day over a period of 14 weeks using an oral syringe to administer the formulation. The treatment period included a two-week titration period and a 12-week maintenance period.
Patients were titrated to their target dose over two weeks, and then remained at that fixed dose for 12 weeks. The mean baseline convulsive seizure frequency across the study groups was approximately 40 seizures per month. 110 (92%) patients completed the study (85% 0.8 mg/kg/day; 100% 0.2 mg/kg/day; 93% placebo).
The proportion of patients who achieved ≥75% seizure reductions, a secondary (non-key) efficacy measure, is also presented.
The mean number of convulsive seizure free days, defined as a day for which diary data are available and no convulsive seizures have been reported, was determined for each treatment group during the Baseline and T+M Periods. […]

## CCNC(C)Cc1cccc(C(F)(F)F)c1 (racemic) [Fenfluramine, (RS)—N-ethyl-1-[3-(trifluoromethyl)phenyl]propan-2-amine]
[1]; Fenfluramine and Valproate, average 0.34 mg/kg/day for between 1 and 22 years
  >50% Reduction in Seizures (responders): 75%
[1]; long-term treatment
  heart valve defects monitored by echocardiography: No clinically relevant defects were identified
  types of seizures reduced: effectively reduced the incidence of all types of seizures
[2]
  reduction from Baseline in non-convulsive seizure frequency (all types): 59.1%
